# From patent US11911353B2, “Fatty acid synthase inhibitor and application thereof” (Jiangnan University, priority 2019, dated 2024)
# What was measured:
# Assay type in all cases: cell-based
# [1] = molecular target: T1, fatty acid synthase (FASN) in colon cancer cells HCT116 (Homo sapiens, UniProt P49327); experiment: FASN enzyme activity detection in treated HCT116 cells (NADPH absorbance at 340 nm); details: for inhibition at 20 µM: HCT-116, 4 hours of incubation, read-out: FASN enzyme activity inhibition rate (%)
# T1 construct: endogenous in cells; host or cells: HCT116 colon cancer cells
# T1 sequence (P49327 whole entry): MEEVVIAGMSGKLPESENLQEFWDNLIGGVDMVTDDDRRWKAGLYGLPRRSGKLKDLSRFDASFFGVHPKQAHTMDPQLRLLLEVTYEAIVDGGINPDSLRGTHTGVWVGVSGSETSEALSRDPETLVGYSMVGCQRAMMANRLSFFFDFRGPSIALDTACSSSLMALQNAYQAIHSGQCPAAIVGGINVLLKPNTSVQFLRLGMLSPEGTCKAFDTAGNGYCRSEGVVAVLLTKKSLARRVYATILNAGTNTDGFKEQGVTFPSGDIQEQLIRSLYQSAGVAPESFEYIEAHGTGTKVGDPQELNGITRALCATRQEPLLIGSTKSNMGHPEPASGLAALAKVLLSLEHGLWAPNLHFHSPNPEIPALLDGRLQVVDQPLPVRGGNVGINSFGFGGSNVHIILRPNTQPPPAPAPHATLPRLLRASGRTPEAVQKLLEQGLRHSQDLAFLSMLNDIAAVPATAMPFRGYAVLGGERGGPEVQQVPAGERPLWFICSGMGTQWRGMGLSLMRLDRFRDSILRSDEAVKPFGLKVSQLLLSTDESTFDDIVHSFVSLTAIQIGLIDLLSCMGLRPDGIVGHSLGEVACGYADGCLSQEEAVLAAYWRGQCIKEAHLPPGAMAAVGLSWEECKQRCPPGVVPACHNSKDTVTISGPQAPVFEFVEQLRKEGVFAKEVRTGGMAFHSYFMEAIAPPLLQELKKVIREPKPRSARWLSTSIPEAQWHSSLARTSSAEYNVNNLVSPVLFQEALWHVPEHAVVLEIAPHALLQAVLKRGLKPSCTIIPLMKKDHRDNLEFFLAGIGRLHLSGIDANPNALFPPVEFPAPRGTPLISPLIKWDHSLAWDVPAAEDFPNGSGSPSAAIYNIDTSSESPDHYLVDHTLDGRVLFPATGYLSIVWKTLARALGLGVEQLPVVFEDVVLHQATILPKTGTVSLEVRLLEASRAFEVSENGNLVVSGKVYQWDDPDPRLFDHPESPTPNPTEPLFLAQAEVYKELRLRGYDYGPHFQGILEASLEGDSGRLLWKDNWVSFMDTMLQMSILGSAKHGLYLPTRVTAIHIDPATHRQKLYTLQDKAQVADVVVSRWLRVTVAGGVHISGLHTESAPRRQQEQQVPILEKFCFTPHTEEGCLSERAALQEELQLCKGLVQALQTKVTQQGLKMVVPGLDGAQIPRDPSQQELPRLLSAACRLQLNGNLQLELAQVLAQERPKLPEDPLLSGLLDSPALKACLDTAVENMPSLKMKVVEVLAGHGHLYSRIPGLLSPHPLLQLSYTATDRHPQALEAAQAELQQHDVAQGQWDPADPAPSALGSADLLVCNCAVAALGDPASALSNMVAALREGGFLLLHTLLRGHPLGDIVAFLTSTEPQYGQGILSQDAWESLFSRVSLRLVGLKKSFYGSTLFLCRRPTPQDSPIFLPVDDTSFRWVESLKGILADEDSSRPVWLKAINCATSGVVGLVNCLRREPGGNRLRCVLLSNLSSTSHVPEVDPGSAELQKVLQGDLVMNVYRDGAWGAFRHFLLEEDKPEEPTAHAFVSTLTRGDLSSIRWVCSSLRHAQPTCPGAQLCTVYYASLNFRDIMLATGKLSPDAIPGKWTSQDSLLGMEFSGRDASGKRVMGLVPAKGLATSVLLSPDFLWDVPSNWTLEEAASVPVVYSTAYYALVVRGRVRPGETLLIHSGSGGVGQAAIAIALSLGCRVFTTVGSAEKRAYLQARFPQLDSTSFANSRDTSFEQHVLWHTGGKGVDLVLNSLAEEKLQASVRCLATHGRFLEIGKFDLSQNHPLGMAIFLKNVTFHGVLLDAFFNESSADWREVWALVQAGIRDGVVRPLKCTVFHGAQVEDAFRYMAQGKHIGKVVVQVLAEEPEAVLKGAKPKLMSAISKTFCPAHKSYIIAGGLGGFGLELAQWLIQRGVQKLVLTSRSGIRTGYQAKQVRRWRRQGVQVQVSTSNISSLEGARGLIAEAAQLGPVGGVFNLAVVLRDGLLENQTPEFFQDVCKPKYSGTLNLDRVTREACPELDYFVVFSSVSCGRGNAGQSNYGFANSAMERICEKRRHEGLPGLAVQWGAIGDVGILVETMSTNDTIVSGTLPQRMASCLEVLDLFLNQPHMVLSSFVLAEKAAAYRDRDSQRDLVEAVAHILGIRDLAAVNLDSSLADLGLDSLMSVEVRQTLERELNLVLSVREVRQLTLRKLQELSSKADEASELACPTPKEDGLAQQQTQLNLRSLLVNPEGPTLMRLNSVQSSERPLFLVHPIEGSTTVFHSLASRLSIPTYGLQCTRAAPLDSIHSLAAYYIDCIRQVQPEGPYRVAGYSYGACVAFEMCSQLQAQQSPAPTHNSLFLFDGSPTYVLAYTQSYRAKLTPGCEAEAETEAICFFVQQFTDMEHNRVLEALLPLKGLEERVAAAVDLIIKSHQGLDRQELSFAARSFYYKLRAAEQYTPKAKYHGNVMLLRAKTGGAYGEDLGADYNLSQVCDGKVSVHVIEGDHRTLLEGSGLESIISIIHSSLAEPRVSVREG
# [2] = tested on: prostate cancer cells PC-3; experiment: MTT tumor proliferation IC50, PC-3; details: 72 hours of incubation
# Text: (§1) IC50 (half maximal inhibitory concentration) refers to the half inhibitory concentration of a measured antagonist. It can indicate that a certain concentration of a certain drug or substance (inhibitor) induces tumor cell apoptosis by 50%, and this concentration is referred to as 50% inhibitory concentration, namely, the corresponding concentration when the ratio of apoptotic cells to the total number of cells is equal to 50%. The IC50 value can be used to measure the ability of a drug to induce apoptosis, that is, the higher the inducing ability, the lower the value, which also can indicate the tolerance degree of a certain cell to a drug on the contrary. • (1) Cells in the logarithmic phase are collected, the concentration of a cell suspension is adjusted, it is appropriate to place 100 μl cells in each well of a 96-well plate, the cells are inoculated into the plate to adjust the density of to-be-detected cells to be 1000-10000 cells/well, and edge wells are filled with sterile PBS. • (2) The cells are incubated under 5% CO2 at 37° C., an original culture medium is discarded after complete cell adherence, 200 μl of 1 wt % FBS culture medium containing 0.01 μM, 0.1 μM, 1 μM, 5 μM and 10 μM compound I-1 or cerulenin is added into each well, and there are 6 wells run in duplicate. An equal volume of DMSO is added as a negative control. • (3) After 72 hours of incubation, the cells are photographed for state recording, an original culture medium is discarded, and 100 μl of serum-free culture medium containing 0.5 mg/ml MTT (3-(4,5-dimethylthiazole-2)-2,5-diphenyltetrazolium bromide, trade name thiazolyl blue) is added into each well. • (4) After 2-4 hours of incubation, an original culture medium is discarded, and 150 μl of dimethyl sulfoxide (DMSO) is added into each well and shaken at 300 rpm for 10 minutes to fully dissolve purple crystals. • (5) The absorbance of each well at OD570 nm is measured by an enzyme-linked immunodetection instrument, the absorbance at OD630 nm is used as a reference, dual-wavelength measurement is carried out, and survival rate results are calculated according to the following formula: Cell survival rate=(OD570−OD630)/(OD570 negative control−OD630 negative control);
# (§2) wherein, OD570: OD570 value of each treatment group; OD630: OD630 value of each treatment group; OD570 control: OD570 value of the negative control group; OD630 control: OD630 value of the negative control group. • (6) The survival rate results are processed with graphpad 6.0 software according to the concentration gradient, the analysis mode is log (inhibitor) vs. Nonlinear regression (curve fit), and the calculated IC50 value is expressed as x+/−SD.
# (§3) The FASN enzyme activity measurement method shown in Experimental Example 18 is used to detect the effects of different substances on FASN enzyme activity. The method shown in Experimental Example 19 is used to detect the effects of different substances on the proliferation of tumor cells, cerulenin is used as a control, and the inhibition rates (%) of different substances on FASN enzyme activity and inhibition rates (IC50 nM) on tumor proliferation are calculated.
# [3] = tested on: colon cancer cells HCT116; experiment: MTT tumor proliferation IC50, HCT116
# Text: as §1, §2, §3
# [4] = tested on: tumor cells 22RV1, PC-3, HT-29, Hela, Hep G2, CaCo-2 and HCT116; experiment: MTT proliferation of various tumor cells at single concentration (FIG. 2); details: 10 μM, 72 hours, 7 different tumor cells
# Text: Cell survival rate=(OD570−OD630)/(OD570 negative control−OD630 negative control); wherein, OD570: OD570 value of each treatment group; OD630: OD630 value of each treatment group; OD570 control: OD570 value of the negative control group; OD630 control: OD630 value of the negative control group.
# [5] = Homo sapiens, HCT-116, 72 hours of incubation
Molecule,"FASN enzyme activity inhibition rate (%) ([1]; 20 μM, 4 hours of incubation)",IC50 [2],IC50 ([3]; 72 hours of incubation),inhibition at 20 µM [1],"IC50 [3, 5]",effect on proliferation of tumor cells [4]
5-(4-bromophenylamino)-5-oxopentanoic acid [Intermediate 1],31.87%,15 ± 1.3 nM,19 ± 2.1 nM,–,–,–
"C/C=C/C/C=C/CCC(=O)[C@H]1O[C@H]1C(N)=O [Cerulenin, cerulenin, reference compound]",–,18 ± 2.7 nM,–,21.3%,29 ± 3.2 nM,no significant effect on the proliferation of some tumor cells
"C=C1C(=O)OC(CCCCCCCC)C1C(=O)O (centres unmarked) [Compound C75, C75]",–,–,–,–,–,no significant effect on the proliferation of some tumor cells
COc1ccc(Br)cc1CNC(=O)NCCCC(=O)Nc1ccc(Br)cc1 [Compound I-2],–,16 ± 2.9 nM,–,30.7%,21 ± 1.6 nM,–
O=C(CCCNC(=O)NCc1cc(Br)ccc1O)Nc1ccc(Br)cc1 [Compound I-3],–,14 ± 2.8 nM,–,41.2%,15 ± 2.5 nM,–
O=C(CCCC(=O)Nc1ccc(Br)cc1)NNC(=O)c1cc(Br)ccc1O [Compound I-4],–,11 ± 1.8 nM,–,49%,14 ± 1.7 nM,–
O=C(CCC(=O)Nc1ccccc1)/N=C/c1ccccc1 [Compound I-6],–,15 ± 1.8 nM,–,41.9%,17 ± 2.7 nM,–
O=C(CCC(=O)Nc1ccccc1)NC(=O)c1ccccc1 [Compound I-7],–,15 ± 2.1 nM,–,37.7%,19 ± 1.9 nM,–
O=C(CCC(=O)Nc1ccccc1)/N=C/Cc1ccccc1 [Compound I-8],–,16 ± 1.7 nM,–,35.2%,20 ± 3.5 nM,–
"CCOC(=O)CCCC(=O)Nc1ccc(Br)cc1 [Intermediate 2, Ethyl 5-(4-bromophenylamino)-5-oxopentanoate]",–,18 ± 2.5 nM,–,22.2%,22 ± 3.1 nM,–
